Reference: PMC6572064, “Discovery of 2-(1-(3-(4-Chloroxyphenyl)-3-oxo- propyl)pyrrolidine-3-yl)-1H-benzo[d]imidazole-4-carboxamide: A Potent Poly(ADP-ribose) Polymerase (PARP) Inhibitor for Treatment of Cancer” (Molecules, 2019)
Where two headings read alike, the source gives them in different places.

Assays:
PARP-1 = target: T1, PARP-1 (Homo sapiens, UniProt P09874); assay: PARP-1 inhibition assay (PARP-1 Chemiluminescent Assay Kit, BPS Bioscience); type: biochemical; settings: 10 nM compound
T1 construct: purchased BPS Bioscience 80569
Procedure: (§1) The PARP-1 and PARP-2 inhibition assays were performed in outsourcing, by a CRO company, Shanghai Medicilon Inc. (Shanghai, China). […] Briefly, PARP-1 or PARP-2 biotinylated substrate was incubated with compounds or solvent control at varying concentrations and an assay buffer containing the PARP-1 or PARP-2 enzyme.

PARP-2 = target: T2, PARP-2 (Homo sapiens, UniProt Q9UGN5); assay: PARP-2 inhibition assay (PARP-2 Chemiluminescent Assay Kit, BPS Bioscience); type: biochemical; settings: 10 nM compound
T2 construct: purchased BPS Bioscience 80552
Procedure: as §1

[1] = test system: MDA-MB-436 (a BRCA-1-mutated breast cancer cell line); assay: Cell proliferation assay, three-day, CellTiter-Glo, MDA-MB-436; type: cell-based; settings: for inhibition at 0.00508 µM: MDA-MB-436, MDA-MB-436, Conc. 0.00508 uM; for inhibition at 0.0152 µM: MDA-MB-436, MDA-MB-436, Conc. 0.0152 uM; for inhibition at 0.0457 µM: MDA-MB-436, MDA-MB-436, Conc. 0.0457 uM; for inhibition at 0.41 µM: MDA-MB-436, MDA-MB-436, Conc. 0.41 uM; for inhibition at 1.23 µM: MDA-MB-436, MDA-MB-436, Conc. 1.23 uM; for inhibition at 3.7 µM: MDA-MB-436, MDA-MB-436, Conc. 3.70 uM
Procedure: (§2) A three-day assay was conducted. A cell suspension was prepared. Cell density was counted by an automated cell counter and then diluted to the required density, according to seeding density. 50 μL cells were seeded into 384-well plate in growth medium according to the plate map. The cells were incubated at 37 °C, 5% CO2 overnight.
(§3) 200× compound solution in DMSO was prepared and diluted with growth medium to 26× final concentration by addition of 26 μL 200× compounds to 174 μL growth medium. Then 2 μL of diluted compound solution was added to cells and the cell was incubated at 37 °C, 5% CO2 for 72 h.
(§4) The assay plate was equilibrated to room temperature prior to measurement. 15 μL of CellTiter-Glo Reagent was added into each well and the contents were mixed for 2 min on an orbital shaker to induce cell lysis. The cells were incubated at room temperature for 60 min to stabilize luminescent signal. Luminescence was recorded on the Envision system.

[2] = test system: CAPAN-1 (a BRCA-2-mutated pancreatic cancer cell line); assay: Cell proliferation assay, three-day, CellTiter-Glo, CAPAN-1; type: cell-based; settings: for inhibition at 0.00508 µM: CAPAN-1, 0.00508 uM; for inhibition at 0.0152 µM: CAPAN-1, 0.0152 uM; for inhibition at 0.0457 µM: CAPAN-1, 0.0457 uM; for inhibition at […]: CAPAN-1, 0.14 uM; for inhibition at 0.41 µM: CAPAN-1, 0.41 uM; for inhibition at 1.23 µM: CAPAN-1, 1.23 uM; for inhibition at 3.7 µM: CAPAN-1, 3.70 uM; for inhibition at 11.11 µM: CAPAN-1, Conc. 11.11 uM; for inhibition at 33.33 µM: CAPAN-1, Conc. 33.33 uM; for inhibition at 100 µM: CAPAN-1, Conc. 100.00 uM
Procedure: as §2, §3, §4

[3] = Homo sapiens, replicate 1, read-out: Inh % 1
[4] = Homo sapiens, replicate 2, read-out: Inh % 2
[5] = CAPAN-1, curve fit of Inh %, plate 1

T2 sequence (Q9UGN5 whole entry): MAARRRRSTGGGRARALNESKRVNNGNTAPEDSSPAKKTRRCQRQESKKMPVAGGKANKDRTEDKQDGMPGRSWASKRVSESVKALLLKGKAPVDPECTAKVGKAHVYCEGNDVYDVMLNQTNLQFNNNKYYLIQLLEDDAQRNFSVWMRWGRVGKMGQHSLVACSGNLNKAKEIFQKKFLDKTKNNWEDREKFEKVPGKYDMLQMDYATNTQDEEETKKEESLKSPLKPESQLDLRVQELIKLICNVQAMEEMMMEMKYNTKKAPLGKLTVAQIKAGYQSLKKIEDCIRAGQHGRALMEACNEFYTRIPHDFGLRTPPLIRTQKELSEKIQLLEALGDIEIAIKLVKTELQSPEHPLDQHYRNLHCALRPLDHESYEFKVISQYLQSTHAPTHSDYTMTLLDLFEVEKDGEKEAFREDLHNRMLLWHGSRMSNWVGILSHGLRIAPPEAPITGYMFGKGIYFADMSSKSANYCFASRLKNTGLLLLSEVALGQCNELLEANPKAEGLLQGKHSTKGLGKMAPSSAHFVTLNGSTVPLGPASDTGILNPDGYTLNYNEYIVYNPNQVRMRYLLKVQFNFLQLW
T1 sequence (P09874 whole entry): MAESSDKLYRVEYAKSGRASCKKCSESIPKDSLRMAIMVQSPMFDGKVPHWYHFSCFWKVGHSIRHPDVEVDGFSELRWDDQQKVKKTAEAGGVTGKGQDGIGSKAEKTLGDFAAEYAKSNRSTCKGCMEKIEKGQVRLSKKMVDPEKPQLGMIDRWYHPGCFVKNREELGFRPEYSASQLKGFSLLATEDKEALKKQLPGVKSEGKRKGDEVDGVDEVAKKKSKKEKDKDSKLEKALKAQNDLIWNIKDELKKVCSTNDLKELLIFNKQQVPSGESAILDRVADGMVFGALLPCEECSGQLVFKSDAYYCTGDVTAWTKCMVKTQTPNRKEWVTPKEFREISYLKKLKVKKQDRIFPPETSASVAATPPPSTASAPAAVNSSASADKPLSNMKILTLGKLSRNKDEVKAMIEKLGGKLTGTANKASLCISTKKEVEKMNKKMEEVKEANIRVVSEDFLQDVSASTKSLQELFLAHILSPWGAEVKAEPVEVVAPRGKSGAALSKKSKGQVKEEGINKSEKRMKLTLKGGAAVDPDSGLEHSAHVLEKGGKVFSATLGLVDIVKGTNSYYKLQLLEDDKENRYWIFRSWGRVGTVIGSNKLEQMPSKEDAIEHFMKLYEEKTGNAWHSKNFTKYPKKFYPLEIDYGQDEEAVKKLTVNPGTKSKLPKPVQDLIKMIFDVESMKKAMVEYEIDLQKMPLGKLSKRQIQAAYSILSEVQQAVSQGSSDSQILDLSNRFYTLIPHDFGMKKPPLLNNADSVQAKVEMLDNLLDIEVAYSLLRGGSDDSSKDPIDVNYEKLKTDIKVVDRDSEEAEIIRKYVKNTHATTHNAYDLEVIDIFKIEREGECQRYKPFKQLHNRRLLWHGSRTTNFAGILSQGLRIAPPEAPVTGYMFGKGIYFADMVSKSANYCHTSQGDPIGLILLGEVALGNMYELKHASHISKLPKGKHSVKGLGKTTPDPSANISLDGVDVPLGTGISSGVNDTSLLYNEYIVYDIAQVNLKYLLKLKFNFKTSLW

Question: Which results are given for `NC(=O)c1cccc2[nH]c(C3CCN(CC(=O)Nc4ccccc4)C3)nc12` (centres unmarked) [Compound 5ca, 2-(1-(2-Oxo-2-(phenylamino)ethyl)pyrrolidin-3-yl)-1H-benzo[d]imidazole-4-carboxamide]?
Answer: inhibition at 0.01 µM (PARP-1; supplement sheet, read-out: 10 nM inhibition% PAPR-1): 17.6%; inhibition at 0.01 µM (PARP-1; read-out: PARP-1 Inhibition % (10 nM)): 17.6%; inhibition at 0.01 µM (PARP-2; supplement sheet, read-out: 10 nM inhibition% PAPR-2): 34.5%; inhibition at 0.01 µM (PARP-2; read-out: PARP-2 Inhibition % (10 nM)): 34.5%; inhibition at 0.00508 µM [1, 3]: -8.8%; inhibition at 0.00508 µM [1, 4]: -5.8%; inhibition at 0.0152 µM [1, 3]: -0.8%; inhibition at 0.0152 µM [1, 4]: -6.8%; inhibition at 0.0457 µM [1, 3]: -1.6%; inhibition at 0.0457 µM [1, 4]: -6.8%; inhibition at 0.41 µM [1, 3]: 2.8%; inhibition at 0.41 µM [1, 4]: -7.6%; inhibition at 1.23 µM [1, 3]: 5.5%; inhibition at 1.23 µM [1, 4]: -1.8%; inhibition at 3.7 µM [1, 3]: 10.4%; inhibition at 3.7 µM [1, 4]: 0.639%; inhibition at 11.11 µM ([1]; Homo sapiens, MDA-MB-436, MDA-MB-436, Conc. 11.11 uM, duplicate wells (Inh % 1, Inh % 2), read-out: Inh %): 15.1%; inhibition at 33.33 µM ([1]; Homo sapiens, MDA-MB-436, MDA-MB-436, Conc. 33.33 uM, duplicate wells (Inh % 1, Inh % 2), read-out: Inh %): 68.9%; inhibition at 100 µM ([1]; Homo sapiens, MDA-MB-436, MDA-MB-436, Conc. 100.00 uM, duplicate wells (Inh % 1, Inh % 2), read-out: Inh %): 93.3%; IC50 ([1]; Homo sapiens, MDA-MB-436, 72 h, CellTiter-Glo, read-out: MDA-MB-436 IC50): 22.9 µM; IC50 ([1]; Homo sapiens, MDA-MB-436, 72 h, supplement Summary sheet, read-out: IC50): 22.9 µM; IC50 ([1]; Homo sapiens, MDA-MB-436, curve fit list, no unit in the cell, concentration in uM, read-out: IC50): 22.9 µM; Inh % ([1]; MDA-MB-436, Conc. 11.11 uM, duplicate wells (Inh % 1, Inh % 2)): 9.5%; Inh % ([1]; MDA-MB-436, Conc. 33.33 uM, duplicate wells (Inh % 1, Inh % 2)): 56.4%; Inh % ([1]; MDA-MB-436, Conc. 100.00 uM, duplicate wells (Inh % 1, Inh % 2)): 81.3%; Bottom ([1]; MDA-MB-436, curve fit parameter (Inh %)): -3.40; Top ([1]; MDA-MB-436, curve fit parameter (Inh %), '= 100.0' is a constrained value): 92.23; LogIC50 ([1]; MDA-MB-436, curve fit, concentration axis Log (uM)): 1.36; Bottom [2, 5]: 11.48; HillSlope [2, 5]: 1.045; Top [2, 5]: = 100.0; LogIC50 ([2]; CAPAN-1, curve fit, plate 1): 2.027 Log (uM); IC50 ([2]; Homo sapiens, CAPAN-1, 72 h, CellTiter-Glo, read-out: CAPAN-1 IC50): > 100 µM; inhibition at 0.00508 µM [2, 3]: -2.6%; inhibition at 0.00508 µM [2, 4]: 19.1%; inhibition at 0.0152 µM [2, 3]: -2.3%; inhibition at 0.0152 µM [2, 4]: 9.8%; inhibition at 0.0457 µM [2, 3]: 6.6%; inhibition at 0.0457 µM [2, 4]: 22%; inhibition at […] [2, 3]: 7.4%; inhibition at […] [2, 4]: 15.6%; inhibition at 0.41 µM [2, 3]: 22.5%; inhibition at 0.41 µM [2, 4]: 10.9%; inhibition at 1.23 µM [2, 3]: 21.1%; inhibition at 1.23 µM [2, 4]: 9.6%; inhibition at 3.7 µM [2, 3]: 8.2%; inhibition at 3.7 µM [2, 4]: 19.9%; inhibition at 11.11 µM [2, 3]: 22.1%; inhibition at 11.11 µM [2, 4]: 20.4%; inhibition at 33.33 µM [2, 3]: 29.2%; inhibition at 33.33 µM [2, 4]: 28.3%; inhibition at 100 µM [2, 3]: 59.9%; inhibition at 100 µM [2, 4]: 51.1%
